Key:
[1] = system: human erythrocytes; assay: Hemolysis analysis; assay type: cell-based; conditions: 1 h, 37 °C, absorbance 405 nm, 0.2–25 μM final concentration, two independent experiments
Description: Considering the therapeutic potential of TFF3, it was important to determine any cytotoxic and hemolytic effects early on to avoid problems in later stages of drug development. We therefore assessed cytotoxicity on HEK-293 cells and hemolytic effects in human erythrocytes. We treated the cells with TFF3(C^57Acm) and TFF3 homodimer and used resazurin, a blue dye that produces strong fluorescence when reduced by living cells, as the readout of the number of viable cells.[60] In the hemolytic assay, we evaluated hemoglobin release, an indicator of erythrocyte lysis, upon exposure to the peptides.
Monomeric and homodimeric TFF3 were serially diluted twofold in 0.9% NaCl and seeded (25 μL) in a 384-well polypropylene plate (0.2–25 μM final concentration). […] The cells were counted using a Neubauer hemocytometer and then diluted to 1 × 10^8/mL in 0.9% NaCl. […] Following incubation, the plates were centrifuged at 1000g for 10 min to pellet cells and debris and then 25 μL of the supernatant was transferred into a 384-well flat-bottom PS plate and absorbance (Abs) was read at 405 nm using a Tecan M1000 Pro monochromator plate reader. Percent hemolysis was calculated using the following equation: Hemolysis (%) = (Abssample – Absnegative/Abspositive – Absnegative) × 100. […]

[2] = Stability in simulated intestinal fluid (SIF); assay type: in vitro ADME; conditions: pig, simulated intestinal fluid (SIF) with porcine pancreatin, pH 6.8, 15 μL of 1 mM peptide stock in 285 μL SIF, 37 °C, samples 0 min-24 h quenched with 5% aqueous TFA, RP-HPLC/LC-MS peak area as % of time 0, exponential one-phase decay fit, read-out: t1/2 in SIF
Experimental: (§1) We exposed TFF3(C^57Acm) and TFF3 homodimer to simulated gastric fluid (SGF, containing pepsin, pH 1.3) and simulated intestinal fluid (SIF, containing pancreatic enzymes, pH 6.8), and monitored the mixture over 24 h by analytical RP-HPLC and MS. The N- and C-termini of TFF3 and its homodimer were readily truncated in both SGF and SIF (Figure 4A,B). In SGF, TFF3 was cleaved at Leu^6/Ser^7 followed by cleavage at Glu^54/Ala^55 (t1/2 < 5 min). In SIF, TFF3 was cleaved first at Thr^58/Phe^59 followed by cleavage at Leu^6/Ser^7, Glu^56/Cys^57, and Ala^55/Glu^56 (t1/2 < 5 min). TFF3 homodimer, in both SGF (t1/2 ∼ 40 min) and SIF (t1/2 < 5 min), was first broken down to monomeric TFF3 through simultaneous cleavage at Leu^6 and Glu^54 or Ala^55, eventually leading to the same metabolites as TFF3 (Figure 4B).
(§2) Simulated gastric fluid (SGF) was prepared by dissolving 20 mg of NaCl and 8 mg of pepsin in 70 μL of concentrated HCl (32%), and the volume was diluted to 10 mL with Milli-Q water (pH 1.3).[76],[77] Simulated intestinal fluid (SIF) was prepared by dissolving 68 mg of KH2PO4 in 500 μL of Milli-Q water followed by the addition of 800 μL of 0.2 M NaOH and 100 mg of porcine pancreatin, and the volume was adjusted to 10 mL with Milli-Q water (pH 6.8).[76],[77] Peptide stock solution (1 mM; 15 μL) was added to SGF (285 μL) or SIF (285 μL) and incubated at 37 °C. Samples (30 μL) from SGF and SIF were taken at 0, 5, 15, and 30 min and 1, 2, 4, 8, and 24 h timepoints and subsequently quenched with 30 μL of 0.2 M Na2CO3 (SGF) or 30 μL of 5% aqueous TFA (SIF). The samples were analyzed by analytical RP-HPLC (30 μL) and/or LC-MS (20 μL). The amount of peptide remaining was determined by measuring the peak area and expressing it as a % of the peak area at time 0. Peptide half-life (t1/2) was determined from the peptide degradation profiles using an exponential one-phase decay fit in Prism (version 7, GraphPad, La Jolla). LC-MS analysis was performed in a Q-Star Pulsar mass spectrometer (SCIEX, Ontario, Canada), and the raw data spectra were processed using the peptide reconstruction tool in the BioAnalyst software to identify the mass of the metabolites. The stability of the disulfide bonds was assessed through incubation of the peptides (10 μM) with 10 equiv of reduced glutathione (GSH; 100 μM) in sodium phosphate (50 mM) buffer at pH 7.2. Samples were taken at timepoints 0, 4, 8, and 24 h, quenched by adding 10% TFA, and analyzed by analytical RP-HPLC using an analytical C3 column (Agilent Zorbax SB-C3, 5 μm, 2.1 mm × 250 mm, 300 Å).

[3] = Stability in simulated gastric fluid (SGF); assay type: in vitro ADME, porcine; conditions: simulated gastric fluid (SGF) with pepsin, pH 1.3, 15 μL of 1 mM peptide stock in 285 μL SGF, 37 °C, samples 0 min-24 h quenched with 0.2 M Na2CO3, RP-HPLC/LC-MS peak area as % of time 0, exponential one-phase decay fit, read-out: t1/2 in SGF
Experimental: as §1, §2

[4] = molecular target: T1, CXCR4 (Homo sapiens, UniProt P61073); assay: Inositol 1 phosphate (IP1) accumulation assay (HTRF) in COS-7 cells transfected with CXCR4; assay type: cell-based; conditions: 5 min preincubation with peptide (1 or 10 μM final), then CXCL12 10^-12 to 10^-5 M; COS-7/CXCR4; IP1 HTRF
T1 construct: expressed in transfected cells; host or cells: COS-7 (African green monkey), transient co-transfection with GαΔ6qi4myr
T1 sequence (P61073 whole entry): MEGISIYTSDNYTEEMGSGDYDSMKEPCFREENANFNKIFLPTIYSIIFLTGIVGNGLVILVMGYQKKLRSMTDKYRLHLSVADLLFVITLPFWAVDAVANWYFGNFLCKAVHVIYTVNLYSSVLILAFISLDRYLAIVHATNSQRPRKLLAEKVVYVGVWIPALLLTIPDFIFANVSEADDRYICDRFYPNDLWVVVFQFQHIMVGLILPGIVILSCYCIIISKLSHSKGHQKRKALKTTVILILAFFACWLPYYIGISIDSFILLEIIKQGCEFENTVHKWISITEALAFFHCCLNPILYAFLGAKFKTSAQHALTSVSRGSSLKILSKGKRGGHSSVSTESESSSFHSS
Description: CXCR4 is a member of the G protein-coupled receptor (GPCR) family[58] and proposed as a target receptor for TFF3 to mediate wound healing.[30],[39] We therefore pharmacologically characterized TFF3(C^57Acm) and TFF3 homodimer at CXCR4. We used a chimeric Gαiq protein to switch the pathway to the Gαq signaling, which leads to the activation of the phospholipase and allows measurement of CXCR4 activation through the production of inositol 1 phosphate (IP1).[61]−[63] We measured IP1 accumulation upon stimulation with TFF3(C^57Acm) and TFF3 homodimer in fibroblast-like COS-7 cells transiently transfected with CXCR4.[58] This is a competitive immunoassay, based on the HTRF technology, where native IP1 produced by cells compete with labeled IP1 (acceptor) for binding to anti-IP1-cryptate (donor). The specific signal (i.e., Förster resonance energy transfer, FRET) is inversely proportional to the concentration of IP1 in the sample. The calculation of the fluorescence ratio eliminates possible medium interferences.[64]
COS-7 cells (fibroblast-like cells from African green monkey) were transiently co-transfected with the CXCR4 C-terminally fused to eYFP in pVitro2 vector and the untagged chimeric G protein GαΔ6qi4myr in pcDNA3.1 plasmid using Metafectene Pro according to manufacturer’s protocol. The cells were cultured in DMEM with higher glucose and supplemented with 10% FCS without any antibiotics at 37 °C and 5% CO2 in 95% humidity. Cisbio IP-One Gq assay kit was used according to previous description with minor modifications to measure activity.[80] Briefly, a standard curve was prepared in HBSS (Hanks’ balanced salt solution) with 20 mM LiCl to determine the linear range of the assay and 10 000 cells/well were cultured overnight in a 384-well flat white plate (Greiner Bio-one GmbH, Frickenhausen, Germany). TFF3 and its homodimer as well as CXCL12 were diluted in HBSS containing 20 mM LiCl. Stimulation was carried out for 1 h in triplicate at 37 °C. Subsequently, 3 μL of IP1-d2 and 3 μL of Ab-cryptate in lysis buffer were added to the wells and incubated on a tumbler for 60 min at 25 °C. Fluorescence was then measured at 620 and 665 nm and the HTRF (homogeneous time-resolved fluorescence) ratio (665/620 nm) was calculated. Data analysis was performed with Prism (version 7, GraphPad, La Jolla). Tested compounds were normalized to CXCL12 wild type, with the highest HTRF ratio set to 0% and the lowest HTRF ratio set to 100% response. […] The final concentration range of 10^–12 to 10^–5 M to CXCL12 and 1 or 10 μM to TFF3(C^57Acm) and TFF3 homodimer was achieved by adding the compounds from a threefold concentrated stock solution.

[5] = molecular target: chemokine receptor type 4 (CXCR4), C-terminally fused to eYFP (UniProt P61073)
Chain of chemokine receptor type 4 (CXCR4), C-terminally fused to eYFP (P61073 whole entry, the tested form may be a part): as the sequence (P61073 whole entry) above

Chain of C-X-C motif chemokine 12 (CXCL12), recombinant human, with an additional N-terminal methionine (P48061 other isoform, or with tags, fused parts or gaps): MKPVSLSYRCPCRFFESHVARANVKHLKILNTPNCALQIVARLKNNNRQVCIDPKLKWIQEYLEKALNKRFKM

Row | EC50 of IP1 accumulation (HTRF, IP-One Gq kit) in COS-7 cells transfected with CXCR4 and a chimeric G protein; CXCL12 10^-12 to 10^-5 M [5] [nM] | Molecule | concentration up to which no hemolytic effect was displayed [1] [µM] | half-life at 50 μM [2] [min] | half-life at 50 μM [3] [min] | effect on the EC50 of CXCL12 at CXCR4 (antagonism) [4]
1 | – | CC[C@H](C)[C@@H]1NC(=O)[C@H](CCCNC(=N)N)NC(=O)[C@H](CO)NC(=O)[C@H](CC(=O)O)NC(=O)[C@H](Cc2ccccc2)NC(=O)[C@@H]2CSSC[C@H](NC(=O)[C@H](CCC(N)=O)NC(=O)[C@H](CC(N)=O)NC(=O)[C@H](C)NC(=O)[C@H](CO)NC(=O)[C@H](CC(C)C)NC(=O)CNC(=O)[C@@H](NC(=O)[C@H](Cc3ccc(O)cc3)NC(=O)[C@H](CCC(=O)O)NC(=O)[C@@H](N)CCC(=O)O)C(C)C)C(=O)N[C@@H](C)C(=O)N[C@@H](C(C)C)C(=O)N3CCC[C@H]3C(=O)N[C@@H](C)C(=O)N[C@@H](CCCCN)C(=O)N[C@@H](CC(=O)O)C(=O)N[C@@H](CCCNC(=N)N)C(=O)N[C@@H](C(C)C)C(=O)N[C@@H](CC(=O)O)C(=O)N[C@H]3CSSC[C@H](NC(=O)CNC(=O)[C@H](CCCNC(=N)N)NC(=O)[C@H](CC(N)=O)NC(=O)[C@H](CC(N)=O)NC(=O)[C@H](CSSC[C@@H](C(=O)N[C@@H](Cc4ccccc4)C(=O)N[C@@H](CCCCN)C(=O)N4CCC[C@H]4C(=O)N[C@@H](CC(C)C)C(=O)N[C@@H](CCC(N)=O)C(=O)N[C@@H](CCC(=O)O)C(=O)N[C@@H](C)C(=O)N[C@@H](CCC(=O)O)C(=O)N[C@@H](CSSC[C@H](NC(=O)[C@H](CCC(=O)O)NC(=O)[C@H](C)NC(=O)[C@H](CCC(=O)O)NC(=O)[C@H](CCC(N)=O)NC(=O)[C@H](CC(C)C)NC(=O)[C@@H]4CCCN4C(=O)[C@H](CCCCN)NC(=O)[C@H](Cc4ccccc4)NC(=O)[C@@H]4CSSC[C@@H]5NC(=O)[C@H](CCC(=O)O)NC(=O)[C@H](CCCCN)NC(=O)[C@@H]6CCCN6C(=O)[C@H]([C@@H](C)O)NC(=O)[C@H](C(C)C)NC(=O)[C@H](Cc6c[nH]cn6)NC(=O)[C@@H]6CCCN6C(=O)[C@H](Cc6ccc(O)cc6)NC(=O)CNC(=O)[C@@H]6CSSC[C@H](NC(=O)CNC(=O)[C@H](CCCNC(=N)N)NC(=O)[C@H](CC(N)=O)NC(=O)[C@H](CC(N)=O)NC5=O)C(=O)N[C@@H](CSSC[C@H](NC(=O)[C@H](CCC(N)=O)NC(=O)[C@H](CC(N)=O)NC(=O)[C@H](C)NC(=O)[C@H](CO)NC(=O)[C@H](CC(C)C)NC(=O)CNC(=O)[C@@H](NC(=O)[C@H](Cc5ccc(O)cc5)NC(=O)[C@H](CCC(=O)O)NC(=O)[C@@H](N)CCC(=O)O)C(C)C)C(=O)N[C@@H](C)C(=O)N[C@@H](C(C)C)C(=O)N5CCC[C@H]5C(=O)N[C@@H](C)C(=O)N[C@@H](CCCCN)C(=O)N[C@@H](CC(=O)O)C(=O)N[C@@H](CCCNC(=N)N)C(=O)N[C@@H](C(C)C)C(=O)N[C@@H](CC(=O)O)C(=O)N6)C(=O)N[C@@H](Cc5ccccc5)C(=O)N[C@@H](CC(=O)O)C(=O)N[C@@H](CO)C(=O)N[C@@H](CCCNC(=N)N)C(=O)N[C@@H]([C@@H](C)CC)C(=O)N5CCC[C@H]5C(=O)NCC(=O)N[C@@H](C(C)C)C(=O)N5CCC[C@H]5C(=O)N[C@@H](Cc5c[nH]c6ccccc56)C(=O)N4)C(=O)N[C@H](C(=O)N[C@@H](Cc4ccccc4)C(=O)O)[C@@H](C)O)C(=O)N[C@H](C(=O)N[C@@H](Cc4ccccc4)C(=O)O)[C@@H](C)O)NC(=O)[C@H](Cc4c[nH]c5ccccc45)NC(=O)[C@@H]4CCCN4C(=O)[C@H](C(C)C)NC(=O)CNC(=O)[C@@H]4CCCN4C1=O)NC(=O)[C@H](CCC(=O)O)NC(=O)[C@H](CCCCN)NC(=O)[C@@H]1CCCN1C(=O)[C@H]([C@@H](C)O)NC(=O)[C@H](C(C)C)NC(=O)[C@H](Cc1c[nH]cn1)NC(=O)[C@@H]1CCCN1C(=O)[C@H](Cc1ccc(O)cc1)NC(=O)CNC3=O)C(=O)N2 [TFF3 homodimer] | > 25 | < 5 | ~40 | not affected
2 | 5.9 | C-X-C motif chemokine 12 (CXCL12), recombinant human, with an additional N-terminal methionine (from UniProt P48061 22-93) (ligand) | – | – | – | –

Source: article PMC8273887 (Journal of Medicinal Chemistry, 2021)
